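Assay format: 96-well plates, 48-hour exposure. GI50 marks 50% less growth.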 Activity calls are given as the source filed them. Cut-off read from the data, not from the text of the source: active = GI50 up to about 1.1 µM and inactive = higher.

Assay in all cases: NCI tumour cell line growth inhibition, 48 h
Test [1] concerns A498.
The subject of test [2] is ACHN.
In test [3] the test system is CCRF-CEM.
In test [4] the test system is COLO 205.
In test [5] the test system is HCT-116.
For test [6], the system named is HCT-15.
Test [7] concerns HL-60.
The subject of test [8] is HOP-92.
For test [9], the system named is IGROV-1.
For test [10], the system named is KM12.
Test [11] has as its system MDA-MB-231.
The subject of test [12] is MDA-MB-435.
In test [13] the test system is NCI-H460.
In test [14] the test system is OVCAR-3.
Test [15] relates to PC-3.
Test [16] deals with RPMI-8226.
The test system of test [17] is SF-268.
Test [18] relates to SF-295.
Test [19] has as its system SK-MEL-5.
Test [20] deals with TK-10.

For `CC12CC(=O)C3C(CCC4=CC(=O)CCC43C)C1CC=C2CC(=O)O` (stereo not given), the GI50 was > 100 µM (inactive) in [1]; > 100 µM (inactive) in test [2]; > 100 µM (inactive) in test [3]; > 100 µM (inactive) in test [4]; > 100 µM (inactive) in test [5]; greater than 100 µM in [6]. The GI50 in test [7], in [8], in [9], in [10], in test [11] and in test [12] was > 100 µM (inactive) throughout. The GI50 was > 100 µM (inactive) in test [13]; 98.2 µM (inactive) in test [14]; > 100 µM (inactive) in [15]; > 100 µM (inactive) in test [16]; > 100 µM (inactive) in test [17]; > 100 µM (inactive) in test [18]. Moreover, the GI50 in test [19] and in test [20] was > 100 µM (inactive) each time.
Consider `Cc1cc2c(SCc3ccccc3Cl)nc(N)nc2nc1C`, for which the GI50 in test [1] was > 100 µM (inactive); in test [2], > 100 µM (inactive); in [3], > 100 µM (inactive); in [4], > 100 µM (inactive); in test [5], > 100 µM (inactive); in test [6] it was greater than 100 µM. The GI50 in [7] is > 100 µM (inactive); in [8] it was 62.4 µM (inactive); in test [9], > 100 µM (inactive); in [10], > 100 µM (inactive); in test [11], > 100 µM (inactive); in test [12] it was > 100 µM (inactive). For the same compound, the GI50 is > 100 µM (inactive) in test [13]; > 100 µM (inactive) in test [14]; > 100 µM (inactive) in [15]; > 100 µM (inactive) in [16]; 65.5 µM (inactive) in test [17]; 97.5 µM (inactive) in test [18]. Also, the GI50 in [19] and in [20] was > 100 µM (inactive) each time.
For `Cc1cn2c(C)csc2c1P(=O)(OC(C)C)OC(C)C`, the GI50 is > 100 µM (inactive) in test [1]; > 100 µM (inactive) in test [2]; > 100 µM (inactive) in test [3]; > 100 µM (inactive) in test [4]; > 100 µM (inactive) in test [5]; greater than 100 µM in [6]. The GI50 is > 100 µM (inactive) in [7]; > 100 µM (inactive) in [8]; > 100 µM (inactive) in test [9]; > 100 µM (inactive) in test [10]; 31.3 µM (inactive) in test [11]; > 100 µM (inactive) in [12]. Moreover, the GI50 in [13], in test [14], in test [15], in test [16], in test [17] and in test [18] was > 100 µM (inactive) throughout. Moreover, the GI50 in test [19] and in [20] was > 100 µM (inactive) throughout.
`O=C1N/C(=N/N=C/c2ccccc2)N/C1=C\c1c[nH]c2ccccc12`: the GI50 was > 100 µM (inactive) in test [1]; > 100 µM (inactive) in test [2]; 11.4 µM (inactive) in test [3]; 60.7 µM (inactive) in [4]; > 100 µM (inactive) in [5]; greater than 100 µM in [6]. Besides, the GI50 in test [7] was 67.3 µM (inactive); in test [8], > 100 µM (inactive); in [9], > 100 µM (inactive); in [10], 65 µM (inactive); in [11], 42.9 µM (inactive); in test [12], > 100 µM (inactive). The GI50 in test [13] is 61 µM (inactive); in test [14], 49.7 µM (inactive); in test [15], 22.6 µM (inactive); in test [16], 7.52 µM (inactive); in test [17] it was 56.6 µM (inactive); in test [18], > 100 µM (inactive). Further, the GI50 in [19] and in test [20] was > 100 µM (inactive) each time.
With `O=C1c2ccccc2S(=O)(=O)c2c1cccc2[N+](=O)[O-]`, the GI50 in test [1] was 4.66 µM (inactive); in test [2], 2.44 µM (inactive); in [3], 1.51 µM (inactive); in [4], 1.16 µM (inactive); in test [5], 1.3 µM (inactive); in test [6], 1.35 µM. Moreover, the GI50 in test [7] is 1.33 µM (inactive); in test [8], 4.49 µM (inactive); in test [9], 1.9 µM (inactive); in test [10] it was 2.15 µM (inactive); in test [11] it was 2.29 µM (inactive); in [12] it was 1.59 µM (inactive). The GI50 in test [13] was > 5.83 µM (inactive); in [14], 1.22 µM (inactive); in [15] it was 3.01 µM (inactive); in test [16], 1.63 µM (inactive); in test [17] it was 3.05 µM (inactive); in test [18], 8.99 µM (inactive). Further, the GI50 in test [19] is 0.643 µM (active); in test [20] it was 5.69 µM (inactive).
Consider `CCC(=O)NI1OC(=O)c2ccccc21`, for which the GI50 was > 100 µM (inactive) in [1]; > 100 µM (inactive) in test [2]; 40.9 µM (inactive) in test [3]; > 100 µM (inactive) in test [4]; > 100 µM (inactive) in [5]; 43.5 µM in test [6]. Also, the GI50 in test [7] was 47.3 µM (inactive); in test [8], > 100 µM (inactive); in [9], > 100 µM (inactive); in [10], > 100 µM (inactive); in test [11], > 100 µM (inactive); in [12], > 100 µM (inactive). Moreover, the GI50 was > 100 µM (inactive) in test [13]; > 100 µM (inactive) in test [14]; > 100 µM (inactive) in test [15]; 45.9 µM (inactive) in test [16]; > 100 µM (inactive) in test [17]; > 100 µM (inactive) in test [18]. For the same compound, the GI50 in test [19] and in test [20] was > 100 µM (inactive) throughout.
With `CC(=O)OC1CC[C@@]2(C)C(=CC[C@@H]3[C@@H]2CC[C@]2(C)Nc4c(cnn4-c4ccc(F)cc4)C[C@@H]32)C1` (stereo not given in full), the GI50 was 19.8 µM (inactive) in [1]; 35.3 µM (inactive) in [2]; 6.46 µM (inactive) in test [3]; 5.45 µM (inactive) in test [4]; 7.4 µM (inactive) in test [5]; 20 µM in [6]. Also, the GI50 was 2.93 µM (inactive) in test [7]; 53.5 µM (inactive) in test [8]; 42.2 µM (inactive) in test [9]; 16.2 µM (inactive) in test [10]; 33 µM (inactive) in test [11]; 39.4 µM (inactive) in test [12]. Further, the GI50 in test [13] is 12.9 µM (inactive); in test [14] it was > 39.4 µM (inactive); in test [15] it was 23.1 µM (inactive); in test [16] it was 3.24 µM (inactive); in test [17] it was 39.4 µM (inactive); in test [18], 4.53 µM (inactive). In addition, the GI50 in test [19] was 25.9 µM (inactive); in test [20] it was 49 µM (inactive).
For `N#CC1CNC(N)NC1N` (stereo not given), the GI50 in test [1] was > 100 µM (inactive); in [2], > 100 µM (inactive); in test [3], < 0.01 µM (active); in [4], > 100 µM (inactive); in [5], > 100 µM (inactive); in test [6] it was greater than 100 µM. Further, the GI50 in test [7], in test [8], in test [9], in test [10], in test [11] and in [12] was > 100 µM (inactive) each time. Also, the GI50 in test [13], in test [14], in test [15], in test [16], in [17] and in test [18] was > 100 µM (inactive) in each case. Further, the GI50 in test [19] and in test [20] was > 100 µM (inactive) in each case.
`O=C(C/C(=N/O)C(F)(F)F)c1cccs1`: the GI50 in test [1] was > 100 µM (inactive); in [2] it was > 100 µM (inactive); in [3] it was > 100 µM (inactive); in test [4] it was > 100 µM (inactive); in test [5] it was > 100 µM (inactive); in test [6], greater than 100 µM. Also, the GI50 in [7], in test [8], in test [9], in [10], in test [11] and in test [12] was > 100 µM (inactive) throughout. For the same compound, the GI50 is > 100 µM (inactive) in [13]; 67.8 µM (inactive) in [14]; > 100 µM (inactive) in test [15]; > 100 µM (inactive) in test [16]; > 100 µM (inactive) in [17]; > 100 µM (inactive) in [18]. The GI50 in [19] and in test [20] was > 100 µM (inactive) in each case.
For the compound `CCc1nc(N)nc(N)c1-c1ccc([N+](=O)[O-])c(Cl)c1`, the GI50 in [1] is 27 µM (inactive); in test [2], 2.73 µM (inactive); in [3], 2.36 µM (inactive); in test [4], 12.5 µM (inactive); in test [5], 0.457 µM (active); in [6], 1.35 µM. The GI50 in test [7] is 0.855 µM (active); in test [8], 18.2 µM (inactive); in test [9], 3.31 µM (inactive); in [10], 6.87 µM (inactive); in test [11], 37.3 µM (inactive); in [12], 1.99 µM (inactive). The GI50 in test [13] is 0.42 µM (active); in test [14] it was 11.5 µM (inactive); in [15] it was 1.87 µM (inactive); in test [16], 8.36 µM (inactive); in test [17], 4.29 µM (inactive); in test [18] it was 2.59 µM (inactive). Besides, the GI50 in test [19] is 2.19 µM (inactive); in test [20], 24.9 µM (inactive).

The values above are taken from ChEMBL document CHEMBL1201862, “PubChem BioAssay data set” (2004).
